Assay results: ChEMBL document CHEMBL5625161, “Pharmacological activity and mechanism of pyrazines” (Eur J Med Chem, 2023)
In brackets after ≈: the same amount, converted by molar mass. Each block holds one compound with its values, some of them ahead of it.

What was measured:
PC-3 [1] = test: Antiproliferative activity against human PC-3 cells assessed as reduction in cell viability incubated for 48 hrs by CCK-8 assay; format: functional, cell-based; details: PC-3, 48 h
[2] = Antiproliferative activity against human THLE-2 cells assessed as reduction in cell viability incubated for 48 hrs by CCK-8 assay; format: toxicity, cell-based
[3] = Selectivity index, ratio of IC50 for antiproliferative activity against human THLE-2 cells to IC50 for antiproliferative activity against human PC-3 cells
MCF7 [4] = test: Antiproliferative activity against human MCF7 cells assessed as reduction in cell growth incubated for 48 hrs by MTT assay; format: functional, cell-based; details: MCF7, 48 h
[5] = Antiproliferative activity against mouse L929 cells assessed as inhibition of cell growth incubated for 5 days by MTT assay; format: toxicity, cell-based
4T1 = test: Cytotoxicity against mouse 4T1 cells assessed as reduction in cell growth incubated for 48 hrs by MTT assay; format: functional, cell-based; details: 4T1, 48 h
HUVEC = test: Antiproliferative activity against VEGF-stimulated human HUVEC cells assessed as reduction in cell viability incubated for 72 hrs by Cell Counting Kit-8 assay; format: functional, cell-based
MDA-MB-231 = test: Antiproliferative activity against human MDA-MB-231 cells assessed as reduction in cell growth incubated for 48 hrs by MTT assay; format: functional, cell-based; details: MDA-MB-231, 48 h
[6] = target: Amine oxidase [flavin-containing] B (Homo sapiens, UniProt P27338); test: Inhibition of human recombinant MAO-B expressed in insect cells incubated for 15 mins by Amplex red and horseradish peroxidase based fluorescence assay; design: species or system Insect cell
Chain of Amine oxidase [flavin-containing] B (P27338 whole entry): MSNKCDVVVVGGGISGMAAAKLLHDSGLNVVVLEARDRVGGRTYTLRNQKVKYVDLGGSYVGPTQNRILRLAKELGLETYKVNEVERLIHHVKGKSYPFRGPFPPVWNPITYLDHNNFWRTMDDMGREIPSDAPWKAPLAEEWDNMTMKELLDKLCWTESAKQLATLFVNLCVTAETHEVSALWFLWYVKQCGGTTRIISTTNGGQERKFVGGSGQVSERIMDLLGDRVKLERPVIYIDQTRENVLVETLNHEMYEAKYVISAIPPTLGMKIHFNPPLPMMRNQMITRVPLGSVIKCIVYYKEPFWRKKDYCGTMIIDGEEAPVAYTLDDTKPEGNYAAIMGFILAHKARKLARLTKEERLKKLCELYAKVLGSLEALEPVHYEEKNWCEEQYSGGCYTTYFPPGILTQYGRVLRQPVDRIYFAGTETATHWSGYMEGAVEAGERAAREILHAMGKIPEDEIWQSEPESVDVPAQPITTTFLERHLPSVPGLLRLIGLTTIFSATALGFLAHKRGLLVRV

MCF7 [7] = test: Antiproliferative activity against human MCF7 cells assessed as inhibition of cell growth at 10 uM incubated for 48 hrs by SRB assay relative to control; format: functional; design: scale not given: the % may be the effect or the level left
Rhizoctonia solani = test: Antifungal activity Rhizoctonia solani assessed as fungal growth inhibition measured after 4 to 8 days; format: functional, organism-based
MG-63 = test: Cytotoxicity against human MG-63 cells assessed as reduction in cell viability incubated for 48 hrs by MTT assay; format: functional, cell-based; details: MG-63, 48 h
SAOS-2 = test: Cytotoxicity against human SAOS-2 cells assessed as reduction in cell viability incubated for 48 hrs by MTT assay; format: functional, cell-based; details: SAOS-2, 48 h
U2OS = test: Cytotoxicity against human U2OS cells assessed as reduction in cell viability incubated for 48 hrs by MTT assay; format: functional, cell-based
Coagulation factor X = Coagulation factor X (Homo sapiens, UniProt P00742); test: Inhibition of human factor Xa
Chain of Coagulation factor X (P00742 41-179 limits assumed): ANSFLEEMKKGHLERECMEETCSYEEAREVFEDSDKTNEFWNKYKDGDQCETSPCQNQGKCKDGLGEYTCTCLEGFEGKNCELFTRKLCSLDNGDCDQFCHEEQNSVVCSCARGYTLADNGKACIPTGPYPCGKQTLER
Chain of Coagulation factor X (P00742 235-488 limits assumed): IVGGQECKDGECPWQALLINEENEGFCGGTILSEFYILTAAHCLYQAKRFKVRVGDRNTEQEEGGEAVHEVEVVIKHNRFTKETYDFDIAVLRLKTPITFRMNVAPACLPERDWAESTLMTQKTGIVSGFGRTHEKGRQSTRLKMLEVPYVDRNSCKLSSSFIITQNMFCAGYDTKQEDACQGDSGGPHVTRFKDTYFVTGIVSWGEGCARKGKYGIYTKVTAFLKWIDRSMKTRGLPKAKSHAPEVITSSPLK

[8] = Antiproliferative activity against mouse […] cells assessed as inhibition of cell growth incubated for 48 hrs by MTT assay; format: functional, cell-based; details: 48 h
H322 = test: Antiproliferative activity against human H322 cells assessed as reduction in cell viability incubated for 48 hrs by SRB assay; format: functional, cell-based; details: NCI-H322, 48 h
A549 = test: Antiproliferative activity against human A549 cells assessed as reduction in cell viability incubated for 48 hrs by SRB assay; format: functional, cell-based; details: A549, 48 h
HCT-116 = test: Antiproliferative activity against human HCT-116 cells assessed reduction in cell growth incubated for 24 hrs by MTT assay; format: functional, cell-based; details: HCT-116, 24 h
[9] = Cytotoxicity against African green monkey Vero cells incubated for 48 hrs by SRB colorimetric assay; format: toxicity, cell-based, Chlorocebus sabaeus
[10] = target: Telomerase reverse transcriptase (Homo sapiens, UniProt O14746); test: Inhibition of telomerase (unknown origin)
Chain of Telomerase reverse transcriptase (O14746 whole entry): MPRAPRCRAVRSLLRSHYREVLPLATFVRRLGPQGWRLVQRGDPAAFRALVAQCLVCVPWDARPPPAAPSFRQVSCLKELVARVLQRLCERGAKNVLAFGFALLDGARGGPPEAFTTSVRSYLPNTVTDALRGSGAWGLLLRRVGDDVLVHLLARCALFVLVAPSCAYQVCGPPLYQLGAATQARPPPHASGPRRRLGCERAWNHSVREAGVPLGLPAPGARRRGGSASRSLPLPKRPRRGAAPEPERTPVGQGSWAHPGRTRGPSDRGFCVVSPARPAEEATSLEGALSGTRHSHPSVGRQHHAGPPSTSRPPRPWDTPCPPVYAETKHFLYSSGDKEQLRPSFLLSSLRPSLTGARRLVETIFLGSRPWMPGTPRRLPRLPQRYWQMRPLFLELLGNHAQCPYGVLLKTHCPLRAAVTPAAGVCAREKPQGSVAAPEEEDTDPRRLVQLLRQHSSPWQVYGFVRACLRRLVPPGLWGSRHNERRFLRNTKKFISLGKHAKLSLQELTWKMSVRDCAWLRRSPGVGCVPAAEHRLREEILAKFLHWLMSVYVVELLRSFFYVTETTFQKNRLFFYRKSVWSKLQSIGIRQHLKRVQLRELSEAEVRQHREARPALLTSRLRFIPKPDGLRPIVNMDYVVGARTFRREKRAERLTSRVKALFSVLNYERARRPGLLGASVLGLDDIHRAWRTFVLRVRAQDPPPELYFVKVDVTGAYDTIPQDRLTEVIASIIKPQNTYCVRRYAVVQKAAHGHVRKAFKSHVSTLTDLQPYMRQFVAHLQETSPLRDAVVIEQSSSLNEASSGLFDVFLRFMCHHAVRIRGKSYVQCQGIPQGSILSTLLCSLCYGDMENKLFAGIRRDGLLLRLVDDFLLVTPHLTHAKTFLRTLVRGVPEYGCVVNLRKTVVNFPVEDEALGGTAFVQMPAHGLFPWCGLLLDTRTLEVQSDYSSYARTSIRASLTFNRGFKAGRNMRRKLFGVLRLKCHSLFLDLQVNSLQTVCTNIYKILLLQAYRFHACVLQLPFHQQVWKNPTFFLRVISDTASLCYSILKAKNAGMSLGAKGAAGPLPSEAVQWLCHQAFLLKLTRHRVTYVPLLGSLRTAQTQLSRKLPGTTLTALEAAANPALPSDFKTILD

SW 1116 = test: Antiproliferative activity against human SW 1116 cells assessed as reduction in cell growth incubated for 48 hrs by MTT assay; format: functional, cell-based; details: SW 1116, 48 h
MCF7 [11] = test: Cytotoxicity against human MCF7 cells assessed as reduction in cell growth incubated for 24 hrs by MTT assay; format: functional, cell-based; details: MCF7, 24 h
Histone deacetylase 1 = Histone deacetylase 1 (Homo sapiens, UniProt Q13547); test: Inhibition of human recombinant HDAC1
Chain of Histone deacetylase 1 (Q13547 whole entry): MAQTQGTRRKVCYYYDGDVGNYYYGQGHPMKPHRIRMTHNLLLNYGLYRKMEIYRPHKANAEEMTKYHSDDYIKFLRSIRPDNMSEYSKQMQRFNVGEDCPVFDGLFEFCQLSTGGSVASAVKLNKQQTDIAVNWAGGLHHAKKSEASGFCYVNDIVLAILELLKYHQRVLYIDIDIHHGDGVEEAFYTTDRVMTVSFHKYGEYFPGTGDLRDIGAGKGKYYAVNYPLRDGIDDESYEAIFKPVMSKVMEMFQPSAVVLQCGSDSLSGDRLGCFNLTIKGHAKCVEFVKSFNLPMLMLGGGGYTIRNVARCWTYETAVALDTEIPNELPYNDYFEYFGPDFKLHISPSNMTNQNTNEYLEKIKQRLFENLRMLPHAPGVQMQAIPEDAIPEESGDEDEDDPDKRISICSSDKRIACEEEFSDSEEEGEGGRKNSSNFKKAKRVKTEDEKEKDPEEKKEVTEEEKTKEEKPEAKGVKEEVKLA

Histone deacetylase 3 = Histone deacetylase 3 (Homo sapiens, UniProt O15379); test: Inhibition of human recombinant HDAC3
Chain of Histone deacetylase 3 (O15379 whole entry): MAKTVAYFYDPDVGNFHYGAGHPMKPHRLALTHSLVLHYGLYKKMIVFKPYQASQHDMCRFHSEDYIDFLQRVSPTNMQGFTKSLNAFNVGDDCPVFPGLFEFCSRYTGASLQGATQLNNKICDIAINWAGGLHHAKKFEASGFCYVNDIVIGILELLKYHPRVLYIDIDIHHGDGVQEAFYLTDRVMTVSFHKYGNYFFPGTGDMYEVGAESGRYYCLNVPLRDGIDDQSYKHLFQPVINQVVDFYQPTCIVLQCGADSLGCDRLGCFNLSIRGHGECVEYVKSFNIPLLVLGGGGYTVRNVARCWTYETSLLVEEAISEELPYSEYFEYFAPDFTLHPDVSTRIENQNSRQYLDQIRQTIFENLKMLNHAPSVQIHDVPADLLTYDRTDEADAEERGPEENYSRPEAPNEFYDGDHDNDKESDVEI

Histone deacetylase 2 = Histone deacetylase 2 (Homo sapiens, UniProt Q92769); test: Inhibition of human recombinant HDAC2
Chain of Histone deacetylase 2 (Q92769 whole entry): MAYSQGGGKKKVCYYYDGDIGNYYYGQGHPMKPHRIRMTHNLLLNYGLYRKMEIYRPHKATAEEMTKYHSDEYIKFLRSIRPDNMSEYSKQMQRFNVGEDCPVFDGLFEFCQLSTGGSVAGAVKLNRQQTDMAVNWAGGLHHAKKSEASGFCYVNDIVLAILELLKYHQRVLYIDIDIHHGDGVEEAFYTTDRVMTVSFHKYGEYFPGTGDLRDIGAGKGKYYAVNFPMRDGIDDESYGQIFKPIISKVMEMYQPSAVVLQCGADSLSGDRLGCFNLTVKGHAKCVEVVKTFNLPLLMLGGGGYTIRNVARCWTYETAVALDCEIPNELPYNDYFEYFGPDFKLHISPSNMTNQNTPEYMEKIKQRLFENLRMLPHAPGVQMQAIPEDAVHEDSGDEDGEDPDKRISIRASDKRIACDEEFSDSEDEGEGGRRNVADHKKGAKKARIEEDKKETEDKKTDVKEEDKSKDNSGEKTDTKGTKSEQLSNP

PC-3 [12] = test: Antiproliferative activity against human PC-3 cells assessed as reduction in cell viability incubated for 24 hrs by MTT assay; format: functional, cell-based; details: PC-3, 24 h
HeLa = test: Antiproliferative activity against human HeLa cells assessed as reduction in cell viability incubated for 24 hrs by MTT assay; format: functional, cell-based
HT-29 = test: Antiproliferative activity against human HT-29 cells assessed as reduction in cell viability incubated for 24 hrs by MTT assay; format: functional, cell-based; details: HT-29, 24 h
Phytophthora nicotianae = test: Antifungal activity against Phytophthora nicotianae assessed a fungal growth inhibition measured after 4 to 8 days; format: functional, organism-based
A-375 = test: Cytotoxicity against human A-375 cells assessed as reduction in cell growth measured after 24 hrs by MTT assay; format: functional, cell-based; details: A-375, 24 h
FaDu = test: Antiproliferative activity against human FaDu cells assessed as inhibition of cell growth incubated for 72 hrs by 3H-thymidine incorporation assay; format: functional, cell-based
A2780 = test: Antiproliferative activity against human A2780 cells assessed as reduction in cell growth incubated for 72 hrs by MTT assay; format: functional, cell-based; details: A2780, 72 h

IC50 (PC-3 [1]): 930 nM
Structure (SMILES): C[C@H](O)[C@@]1(C)CCC2[C@]3(C)CC=C4C(C)(C)c5nc(C(=O)NCCc6ccccc6)cnc5C[C@]4(C)[C@H]3CC[C@@]21C (stereo not given in full)
IC50 at 48 h [2]: 26700 nM | Ratio IC50 [3]: 28.71

IC50 (MCF7 [4]): 1110 nM | IC50 (MDA-MB-231): 840 nM
Structure (SMILES): Cc1nc(C)c(C(=O)NCCCCCCCCCCCCNOC(=O)c2ccc3cc[nH]c3c2)nc1C
IC50 at 5 days [5]: 3160 nM | IC50 (4T1): 1160 nM | IC50 (HUVEC): 3820 nM

IC50 [6]: 780 nM
Structure (SMILES): O=C(Nc1ccc2c(ccn2Cc2cccc(F)c2)c1)c1cnccn1

Structure (SMILES): O=C1c2cc3ccccc3n2C(=O)C2Cc3ccncc3N12 (stereo not given)
Activity (MCF7 [7]): 50.6%

Structure (SMILES): O=C(OCc1cnccn1)c1ccccc1
EC50 (Rhizoctonia solani): 0.02 µg/mL (≈ 0.0934 µM)

Structure (SMILES): Cc1nc(C)c(C)nc1C [LIGUSTRAZINE]
IC50 (MG-63): 10.3 µg/mL (≈ 75.6 µM) | IC50 (SAOS-2): 24.7 µg/mL (≈ 181 µM) | IC50 (U2OS): 54.7 µg/mL (≈ 402 µM)

IC50 (Coagulation factor X): 0.58 nM
Structure (SMILES): CN1C2(CCN(c3ccncc3)CC2)CN2C(=O)CN(S(=O)(=O)c3ccc4cc(Cl)ccc4c3)CC21CO (stereo not given)

Structure (SMILES): CCn1nc(C2CCN(C(=O)CCO)CC2)nc1-c1cnc(N)c(-c2nnc(C(C)(C)C)o2)n1 [AZD-8835]
IC50 [8]: 930 nM

IC50 (H322): 34700 nM | IC50 (A549): 24200 nM
Structure (SMILES): O=c1c2cc(-c3ccc(Cl)cc3)nn2cc(-c2ccccc2)n1CCN1CCOCC1

IC50 (HCT-116): 84 nM
Structure (SMILES): C[C@@H]1[C@]2(O[C@H]3C=C4[C@@H]5CC[C@H]6Cc7nc8c(nc7C[C@]6(C)[C@H]5C[C@@H](O)[C@]4(C)[C@]31O)C[C@@H]1CC[C@H]3C4=CC5O[C@@]6(CCC(C)(C)O6)[C@@H](C)[C@@H]5[C@@]4(C)[C@H](O)C[C@@H]3[C@@]1(C)C8)O[C@](C)(COC(=O)CNC(=O)Cc1cc(=O)oc3cc(N(C)C)ccc13)C[C@H]2O (stereo not given in full)

Structure (SMILES): COC(=O)c1sc2nccnc2c1Nc1ccccc1OC
IC50 at 48 h [9]: 21300 nM

IC50 [10]: 15000 nM
Structure (SMILES): Fc1ccc(CSc2nnc(-c3cnccn3)n2-c2ccccc2)cc1
IC50 (SW 1116): 4120 nM

Structure (SMILES): CN(C)CCNc1ccc2c3c(cccc13)-c1nc(C#N)c(C#N)nc1-2
IC50 (MCF7 [11]): 4600 nM

IC50 (Histone deacetylase 1): 260 nM | IC50 (Histone deacetylase 3): 1000 nM | IC50 (Histone deacetylase 2): 2470 nM
Structure (SMILES): Cn1cc(CCN2CCN(c3cnc(C(=O)Nc4cc(-c5cccs5)ccc4[N+](=O)[O-])cn3)CC2)c2ccccc21

IC50 (PC-3 [12]): 80 nM | IC50 (HeLa): 80 nM | IC50 (HT-29): 20 nM
Structure (SMILES): CN(CCCN(C)CCN1C(=O)c2cccc3c2c(cc2nccnc23)C1=O)CCN1C(=O)c2cccc3c2c(cc2nccnc23)C1=O

Structure (SMILES): CC(OC(=O)c1ccccc1)c1cnccn1 (stereo not given)
EC50 (Rhizoctonia solani): 0.019 µg/mL (≈ 0.0832 µM) | EC50 (Phytophthora nicotianae): 0.187 µg/mL (≈ 0.819 µM)

IC50 (A2780): 13700 nM | IC50 (HT-29): 12200 nM
Structure (SMILES): C[C@H]1[C@H](C)CC[C@]2(C)CC[C@]3(C)C(=CC(=O)[C@@H]4[C@@]5(C)Cc6nccnc6[C@](C)(C(=O)OCc6ccccc6)[C@@H]5CC[C@]43C)[C@H]12
IC50 (A-375): 2100 nM | IC50 (FaDu): > 30000 nM
